ChEMBL document CHEMBL1821646, “Design and synthesis of a biotinylated probe of COX-2 inhibitor nimesulide analog JCC76” (Bioorg Med Chem Lett, 2011)

Columns and labels:
SK-BR-3 [1] = test: Antiproliferative activity against human SKBR3 cells after 48 to 72 hrs by MTT assay; format: functional, cell-based
SK-BR-3 [2] = test: Antiproliferative activity against human SKBR3 cells at 100 uM after 48 to 72 hrs by MTT assay; format: cell-based; conditions: sk-br-3, 100 µM

SMILES	IC50 (SK-BR-3 [1]) [µM]	Activity (SK-BR-3 [2])
CCCCCC(=O)NCCCCCCN(c1ccc(NC(=O)C2CCCCC2)cc1OCc1cc(C)ccc1C)S(C)(=O)=O	6	
Cc1ccc(C)c(COc2cc(NC(=O)C3CCCCC3)ccc2N(CCCCCCNC(=O)c2ccc3ccccc3c2)S(C)(=O)=O)c1	45.3	
CCCCCCN(c1ccc(NC(=O)C2CCCCC2)cc1OCc1cc(C)ccc1C)S(C)(=O)=O	81.7	
COCCOCCN(c1ccc(NC(=O)C2CCCCC2)cc1OCc1cc(C)ccc1C)S(C)(=O)=O	13	
Cc1ccc(C)c(COc2cc(NC(=O)C3CCCCC3)ccc2N(CCCCCCNC(=O)CCCC[C@H]2SC[C@H]3NC(=O)N[C@H]32)S(C)(=O)=O)c1	2.21	
Cc1ccc(C)c(COc2cc(NC(=O)C3CCCCC3)ccc2NS(C)(=O)=O)c1	83.7	
O=C(O)CCCC[C@@H]1SC[C@@H]2NC(=O)N[C@@H]21 [BIOTIN]		Non-toxic
